Values of other authors, collected in patent US20190125940A1, “STENTS FOR THE RELEASE OF ACTIVE PRINCIPLES” (CID S.p.A., priority 2016, published 2019).

Settings: related to complete in vitro release at 30 hours; Eurointervention 2012; 7:1087-1094

Compound: CO[C@H]1C[C@@H]2CC[C@@H](C)[C@@](O)(O2)C(=O)C(=O)N2CCCC[C@H]2C(=O)O[C@H]([C@H](C)C[C@@H]2CC[C@@H](O)[C@H](OC)C2)CC(=O)[C@H](C)/C=C(\C)[C@@H](O)[C@@H](OC)C(=O)[C@H](C)C[C@H](C)/C=C/C=C/C=C/1C [Sirolimus]
- in vivo release after coronary implantation: greater than 30 days
